Test results taken from article PMC8632988, “Inhibition of SYK and cSrc kinases can protect bone and cartilage in preclinical models of osteoarthritis and rheumatoid arthritis” (Scientific Reports, 2021).
pIC50: −log10 of the molar value. Several values for one entry are separate records, joined by “and”; a condition that tells them apart may be missing. Equal values may be shown once.

Columns and labels:
ARK5/NUAK1 = biological target: T1, ARK5/NUAK1 (Homo sapiens, UniProt O60285); assay: Kinase selectivity profile assay; type: biochemical
T1 construct: purchased Reaction Biology Corporation (assay service)
From the text: (§1) Kinase activity data was expressed as the percent remaining kinase activity in test samples compared to vehicle (dimethyl sulfoxide) reactions based on the radioactivity of reaction products (see Table S2). Experiment was replicated twice.

Aurora A = biological target: T2, Aurora A (Homo sapiens, UniProt O14965); assay: Kinase selectivity profile assay; type: biochemical; details: 500 nM; relative to DMSO; read-out: Residual enzymatic activity
T2 construct: purchased Reaction Biology Corporation
From the text: as §1

BMX/ETK = biological target: T3, BMX/ETK (Homo sapiens, UniProt P51813); assay: Kinase selectivity profile assay; type: biochemical
T3 construct: purchased Reaction Biology Corporation (assay service)
T3 sequence (P51813 whole entry): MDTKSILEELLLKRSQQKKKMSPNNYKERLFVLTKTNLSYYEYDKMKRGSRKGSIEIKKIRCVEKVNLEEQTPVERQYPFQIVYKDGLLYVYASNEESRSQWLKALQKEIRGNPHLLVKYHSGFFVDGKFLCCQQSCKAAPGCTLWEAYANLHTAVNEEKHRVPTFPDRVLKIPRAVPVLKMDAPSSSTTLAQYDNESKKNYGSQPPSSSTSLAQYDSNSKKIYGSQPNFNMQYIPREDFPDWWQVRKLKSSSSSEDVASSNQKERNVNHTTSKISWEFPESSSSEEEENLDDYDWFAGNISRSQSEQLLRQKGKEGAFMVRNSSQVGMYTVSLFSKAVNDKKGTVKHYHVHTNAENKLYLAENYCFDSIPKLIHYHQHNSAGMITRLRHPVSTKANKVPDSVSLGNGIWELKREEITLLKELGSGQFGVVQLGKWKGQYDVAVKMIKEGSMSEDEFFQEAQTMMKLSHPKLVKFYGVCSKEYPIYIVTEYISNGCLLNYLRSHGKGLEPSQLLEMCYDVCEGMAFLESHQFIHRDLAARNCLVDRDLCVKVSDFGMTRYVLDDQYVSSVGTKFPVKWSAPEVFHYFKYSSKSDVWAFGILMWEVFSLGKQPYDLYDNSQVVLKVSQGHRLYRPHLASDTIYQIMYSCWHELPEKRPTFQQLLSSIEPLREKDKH
From the text: as §1

CAMK1a = biological target: T4, CAMK1a (Homo sapiens, UniProt Q14012); assay: Kinase selectivity profile assay; type: biochemical; details: 500 nM; relative to DMSO; read-out: Residual enzymatic activity
T4 construct: purchased Reaction Biology Corporation
From the text: as §1

CAMK1d = biological target: T5, CAMK1d (Homo sapiens, UniProt Q8IU85); assay: Kinase selectivity profile assay; type: biochemical; details: 500 nM; relative to DMSO; read-out: Residual enzymatic activity
T5 construct: purchased Reaction Biology Corporation
From the text: as §1

CAMK1g = biological target: T6, CAMK1g (Homo sapiens, UniProt Q96NX5); assay: Kinase selectivity profile assay; type: biochemical; details: 500 nM; relative to DMSO; read-out: Residual enzymatic activity
T6 construct: purchased Reaction Biology Corporation
From the text: as §1

CDK9/cyclin K = biological target: T7, CDK9/cyclin K (Homo sapiens, UniProt P50750); assay: Kinase selectivity profile assay; type: biochemical; details: 500 nM; relative to DMSO; read-out: Residual enzymatic activity
T7 construct: purchased Reaction Biology Corporation
From the text: as §1

EGFR = biological target: T8, EGFR (Homo sapiens, UniProt P00533); assay: Kinase selectivity profile assay; type: biochemical; details: 500 nM, relative to DMSO
T8 construct: purchased Reaction Biology Corporation
From the text: as §1

EPHA2 = biological target: T9, EPHA2 (Homo sapiens, UniProt P29317); assay: Kinase selectivity profile assay; type: biochemical; details: 500 nM, relative to DMSO
T9 construct: purchased Reaction Biology Corporation
From the text: as §1

FES/FPS = biological target: T10, FES/FPS (Homo sapiens, UniProt P07332); assay: Kinase selectivity profile assay; type: biochemical; details: 500 nM; relative to DMSO; read-out: Residual enzymatic activity
T10 construct: purchased Reaction Biology Corporation
From the text: as §1

FGFR2 = biological target: T11, FGFR2 (Homo sapiens, UniProt P21802); assay: Kinase selectivity profile assay; type: biochemical; details: 500 nM, relative to DMSO
T11 construct: purchased Reaction Biology Corporation
From the text: as §1

FYN = biological target: T12, FYN (Homo sapiens, UniProt P06241); assay: Kinase selectivity profile assay; type: biochemical
T12 construct: purchased Reaction Biology Corporation (assay service)
T12 sequence (P06241 whole entry): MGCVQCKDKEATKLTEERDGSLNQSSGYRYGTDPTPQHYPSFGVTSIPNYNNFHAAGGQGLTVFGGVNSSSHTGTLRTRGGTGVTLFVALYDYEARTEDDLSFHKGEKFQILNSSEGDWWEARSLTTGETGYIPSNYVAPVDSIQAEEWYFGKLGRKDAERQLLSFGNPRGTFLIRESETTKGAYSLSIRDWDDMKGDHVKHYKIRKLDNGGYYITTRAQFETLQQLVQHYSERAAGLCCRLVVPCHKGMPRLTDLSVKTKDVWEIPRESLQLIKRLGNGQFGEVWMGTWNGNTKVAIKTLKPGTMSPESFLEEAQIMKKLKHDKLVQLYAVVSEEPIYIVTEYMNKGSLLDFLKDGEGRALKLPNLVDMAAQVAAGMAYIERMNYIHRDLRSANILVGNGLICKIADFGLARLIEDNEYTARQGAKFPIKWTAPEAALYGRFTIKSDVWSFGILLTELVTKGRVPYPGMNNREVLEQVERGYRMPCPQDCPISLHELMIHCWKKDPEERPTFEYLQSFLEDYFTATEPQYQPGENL
From the text: as §1

IKKa/CHUK = biological target: T13, IKKa/CHUK (Homo sapiens, UniProt O15111); assay: Kinase selectivity profile assay; type: biochemical; details: 500 nM; relative to DMSO; read-out: Residual enzymatic activity
T13 construct: purchased Reaction Biology Corporation
From the text: as §1

ITK = biological target: T14, ITK (Homo sapiens, UniProt Q08881); assay: Kinase selectivity profile assay; type: biochemical; details: 500 nM; relative to DMSO; read-out: Residual enzymatic activity
T14 construct: purchased Reaction Biology Corporation
From the text: as §1

JAK2 = biological target: T15, JAK2 (Homo sapiens, UniProt O60674); assay: Kinase selectivity profile assay; type: biochemical
T15 construct: purchased Reaction Biology Corporation (assay service)
From the text: as §1

JNK1 = biological target: T16, JNK1 (Homo sapiens, UniProt P45983); assay: Kinase selectivity profile assay; type: biochemical; details: 500 nM; relative to DMSO; read-out: Residual enzymatic activity
T16 construct: purchased Reaction Biology Corporation
From the text: as §1

KDR/VEGFR2 = biological target: T17, KDR/VEGFR2 (Homo sapiens, UniProt P35968); assay: Kinase selectivity profile assay; type: biochemical; details: 500 nM, relative to DMSO
T17 construct: purchased Reaction Biology Corporation
From the text: as §1

MARK3 = biological target: T18, MARK3 (Homo sapiens, UniProt P27448); assay: Kinase selectivity profile assay; type: biochemical; details: 500 nM; relative to DMSO; read-out: Residual enzymatic activity
T18 construct: purchased Reaction Biology Corporation
From the text: as §1

MLK3/MAP3K11 = biological target: T19, MLK3/MAP3K11 (Homo sapiens, UniProt Q16584); assay: Kinase selectivity profile assay; type: biochemical
T19 construct: purchased Reaction Biology Corporation (Malvern, PA, USA)
From the text: as §1

NEK11 = biological target: T20, NEK11 (Homo sapiens, UniProt Q8NG66); assay: Kinase selectivity profile assay; type: biochemical
T20 construct: purchased Reaction Biology Corporation (Malvern, PA, USA)
T20 sequence (Q8NG66 whole entry): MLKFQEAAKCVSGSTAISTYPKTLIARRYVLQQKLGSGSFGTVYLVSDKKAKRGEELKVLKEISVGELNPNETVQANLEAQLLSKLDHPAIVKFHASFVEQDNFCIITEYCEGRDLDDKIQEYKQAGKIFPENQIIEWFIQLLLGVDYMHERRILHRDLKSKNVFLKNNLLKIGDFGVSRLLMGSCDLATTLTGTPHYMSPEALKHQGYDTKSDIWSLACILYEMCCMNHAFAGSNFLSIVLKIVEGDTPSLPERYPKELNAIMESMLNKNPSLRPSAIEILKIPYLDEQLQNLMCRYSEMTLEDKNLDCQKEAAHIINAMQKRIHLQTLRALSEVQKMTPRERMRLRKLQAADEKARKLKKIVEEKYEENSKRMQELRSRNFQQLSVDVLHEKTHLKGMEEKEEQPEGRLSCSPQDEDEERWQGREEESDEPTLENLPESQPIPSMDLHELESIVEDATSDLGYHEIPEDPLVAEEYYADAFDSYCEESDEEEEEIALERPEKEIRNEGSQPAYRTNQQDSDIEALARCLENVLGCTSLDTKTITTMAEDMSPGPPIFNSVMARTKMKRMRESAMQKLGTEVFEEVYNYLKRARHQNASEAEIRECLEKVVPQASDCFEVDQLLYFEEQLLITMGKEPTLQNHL
From the text: as §1

NEK2 = biological target: T21, NEK2 (Homo sapiens, UniProt P51955); assay: Kinase selectivity profile assay; type: biochemical; details: 500 nM; relative to DMSO; read-out: Residual enzymatic activity
T21 construct: purchased Reaction Biology Corporation
From the text: as §1

PAK2 = biological target: T22, PAK2 (Homo sapiens, UniProt Q13177); assay: Kinase selectivity profile assay; type: biochemical; details: 500 nM; relative to DMSO; read-out: Residual enzymatic activity
T22 construct: purchased Reaction Biology Corporation
From the text: as §1

PAK3 = biological target: T23, PAK3 (Homo sapiens, UniProt O75914); assay: Kinase selectivity profile assay; type: biochemical; details: 500 nM; relative to DMSO; read-out: Residual enzymatic activity
T23 construct: purchased Reaction Biology Corporation
From the text: as §1

PKG2/PRKG2 = biological target: T24, PKG2/PRKG2 (Homo sapiens, UniProt Q13237); assay: Kinase selectivity profile assay; type: biochemical; details: 500 nM; relative to DMSO; read-out: Residual enzymatic activity
T24 construct: purchased Reaction Biology Corporation
From the text: as §1

PYK2 = biological target: T25, PYK2 (Homo sapiens, UniProt Q14289); assay: Kinase selectivity profile assay; type: biochemical; details: 500 nM; relative to DMSO; read-out: Residual enzymatic activity
T25 construct: purchased Reaction Biology Corporation
From the text: as §1

ROS/ROS1 = biological target: T26, ROS/ROS1 (Homo sapiens, UniProt P08922); assay: Kinase selectivity profile assay; type: biochemical
T26 construct: purchased Reaction Biology Corporation (Malvern, PA, USA)
T26 sequence (P08922 28-2347): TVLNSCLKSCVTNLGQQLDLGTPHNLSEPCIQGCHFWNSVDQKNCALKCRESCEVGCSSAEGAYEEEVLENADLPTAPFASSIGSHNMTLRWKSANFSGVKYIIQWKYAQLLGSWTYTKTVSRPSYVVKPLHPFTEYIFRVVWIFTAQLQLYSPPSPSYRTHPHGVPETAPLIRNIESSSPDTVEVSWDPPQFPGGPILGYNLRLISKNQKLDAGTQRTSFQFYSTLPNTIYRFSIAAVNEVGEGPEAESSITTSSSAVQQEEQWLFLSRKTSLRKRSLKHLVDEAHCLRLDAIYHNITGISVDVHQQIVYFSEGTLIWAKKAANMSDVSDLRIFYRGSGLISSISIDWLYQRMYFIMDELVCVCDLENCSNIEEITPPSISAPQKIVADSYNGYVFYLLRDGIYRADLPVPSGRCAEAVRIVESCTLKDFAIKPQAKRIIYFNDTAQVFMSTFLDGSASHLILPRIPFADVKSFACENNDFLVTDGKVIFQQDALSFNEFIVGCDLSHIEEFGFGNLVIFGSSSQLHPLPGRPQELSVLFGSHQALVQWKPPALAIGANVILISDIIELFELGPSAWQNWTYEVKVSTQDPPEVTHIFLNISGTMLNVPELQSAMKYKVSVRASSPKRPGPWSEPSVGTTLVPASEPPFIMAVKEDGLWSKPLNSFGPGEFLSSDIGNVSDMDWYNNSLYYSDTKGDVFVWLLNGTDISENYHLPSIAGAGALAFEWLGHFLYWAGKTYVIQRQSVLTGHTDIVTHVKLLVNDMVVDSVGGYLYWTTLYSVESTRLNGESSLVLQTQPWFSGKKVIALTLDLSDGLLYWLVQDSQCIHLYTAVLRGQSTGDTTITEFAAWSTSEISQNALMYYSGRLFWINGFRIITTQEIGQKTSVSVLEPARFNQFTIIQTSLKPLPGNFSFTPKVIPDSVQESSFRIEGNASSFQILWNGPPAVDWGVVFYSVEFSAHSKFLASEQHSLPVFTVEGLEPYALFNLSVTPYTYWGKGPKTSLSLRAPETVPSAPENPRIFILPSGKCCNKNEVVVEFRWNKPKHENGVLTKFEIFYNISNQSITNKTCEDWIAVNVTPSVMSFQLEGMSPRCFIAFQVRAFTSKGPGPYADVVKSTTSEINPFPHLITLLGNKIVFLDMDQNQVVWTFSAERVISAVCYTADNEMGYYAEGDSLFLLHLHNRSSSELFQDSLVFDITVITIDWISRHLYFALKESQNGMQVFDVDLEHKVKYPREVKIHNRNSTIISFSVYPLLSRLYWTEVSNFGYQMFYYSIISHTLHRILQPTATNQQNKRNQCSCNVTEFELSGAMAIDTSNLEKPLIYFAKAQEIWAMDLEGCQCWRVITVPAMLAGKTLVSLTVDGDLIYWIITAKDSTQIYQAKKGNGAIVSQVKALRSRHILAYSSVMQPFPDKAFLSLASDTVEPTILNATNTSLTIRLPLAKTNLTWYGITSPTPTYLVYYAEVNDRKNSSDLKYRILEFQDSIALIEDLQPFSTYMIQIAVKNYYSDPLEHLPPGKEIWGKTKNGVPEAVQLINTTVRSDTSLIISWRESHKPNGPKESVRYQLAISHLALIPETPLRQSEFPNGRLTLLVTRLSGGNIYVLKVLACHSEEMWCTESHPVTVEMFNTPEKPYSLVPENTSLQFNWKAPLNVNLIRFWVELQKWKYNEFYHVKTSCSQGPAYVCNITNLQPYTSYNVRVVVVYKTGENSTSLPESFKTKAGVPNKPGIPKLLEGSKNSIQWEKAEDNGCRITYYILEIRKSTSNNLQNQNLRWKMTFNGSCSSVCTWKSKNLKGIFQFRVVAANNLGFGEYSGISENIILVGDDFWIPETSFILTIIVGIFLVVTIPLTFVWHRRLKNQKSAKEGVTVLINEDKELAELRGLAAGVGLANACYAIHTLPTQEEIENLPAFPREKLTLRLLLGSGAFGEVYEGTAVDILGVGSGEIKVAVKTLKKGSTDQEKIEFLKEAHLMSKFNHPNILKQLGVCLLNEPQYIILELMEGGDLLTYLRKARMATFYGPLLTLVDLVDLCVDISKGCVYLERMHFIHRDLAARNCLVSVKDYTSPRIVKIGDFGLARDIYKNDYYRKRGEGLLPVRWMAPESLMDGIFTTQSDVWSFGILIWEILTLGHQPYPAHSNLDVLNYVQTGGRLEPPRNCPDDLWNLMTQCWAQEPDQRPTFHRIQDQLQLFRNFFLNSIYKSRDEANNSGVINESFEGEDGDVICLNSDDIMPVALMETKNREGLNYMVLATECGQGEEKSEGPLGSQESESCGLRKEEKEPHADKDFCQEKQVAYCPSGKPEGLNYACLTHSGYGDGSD
From the text: as §1

SIK2 = biological target: T27, SIK2 (Homo sapiens, UniProt Q9H0K1); assay: Kinase selectivity profile assay; type: biochemical
T27 construct: purchased Reaction Biology Corporation (Malvern, PA, USA)
T27 sequence (Q9H0K1 whole entry): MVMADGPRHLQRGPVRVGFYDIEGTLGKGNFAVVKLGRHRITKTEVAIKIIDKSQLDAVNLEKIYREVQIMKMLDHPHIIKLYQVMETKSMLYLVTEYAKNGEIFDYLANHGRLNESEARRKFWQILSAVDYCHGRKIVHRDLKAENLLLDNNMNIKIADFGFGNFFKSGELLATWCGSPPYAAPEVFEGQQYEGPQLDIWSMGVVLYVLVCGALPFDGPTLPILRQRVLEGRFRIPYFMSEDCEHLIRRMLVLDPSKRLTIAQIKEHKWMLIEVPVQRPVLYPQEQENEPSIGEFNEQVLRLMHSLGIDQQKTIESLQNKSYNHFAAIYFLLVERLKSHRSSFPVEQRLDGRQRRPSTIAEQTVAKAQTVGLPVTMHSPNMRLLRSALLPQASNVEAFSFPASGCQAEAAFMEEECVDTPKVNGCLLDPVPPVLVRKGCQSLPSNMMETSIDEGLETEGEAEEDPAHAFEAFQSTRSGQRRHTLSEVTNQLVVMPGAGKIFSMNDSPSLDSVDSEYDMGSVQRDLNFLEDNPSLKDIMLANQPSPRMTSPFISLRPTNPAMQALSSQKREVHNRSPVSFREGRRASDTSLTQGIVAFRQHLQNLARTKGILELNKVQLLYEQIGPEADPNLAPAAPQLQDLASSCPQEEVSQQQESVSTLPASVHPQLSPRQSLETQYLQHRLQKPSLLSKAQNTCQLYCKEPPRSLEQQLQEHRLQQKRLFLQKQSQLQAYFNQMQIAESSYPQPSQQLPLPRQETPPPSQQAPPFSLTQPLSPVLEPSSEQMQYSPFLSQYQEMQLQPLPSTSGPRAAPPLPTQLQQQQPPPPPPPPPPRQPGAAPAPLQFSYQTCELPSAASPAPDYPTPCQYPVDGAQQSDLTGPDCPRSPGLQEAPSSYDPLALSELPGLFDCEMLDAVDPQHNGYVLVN
From the text: as §1

TLK2 = biological target: T28, TLK2 (Homo sapiens, UniProt Q86UE8); assay: Kinase selectivity profile assay; type: biochemical; details: 500 nM; relative to DMSO; read-out: Residual enzymatic activity
T28 construct: purchased Reaction Biology Corporation
From the text: as §1

TRKC = biological target: T29, TRKC (Homo sapiens, UniProt Q16288); assay: Kinase selectivity profile assay; type: biochemical; details: 500 nM; relative to DMSO; read-out: Residual enzymatic activity
T29 construct: purchased Reaction Biology Corporation
From the text: as §1

TSSK3/STK22C = biological target: T30, TSSK3/STK22C (Homo sapiens, UniProt Q96PN8); assay: Kinase selectivity profile assay; type: biochemical; details: 500 nM; relative to DMSO; read-out: Residual enzymatic activity
T30 construct: purchased Reaction Biology Corporation
From the text: as §1

ZIPK/DAPK3 = biological target: T31, ZIPK/DAPK3 (Homo sapiens, UniProt O43293); assay: Kinase selectivity profile assay; type: biochemical; details: 500 nM; relative to DMSO; read-out: Residual enzymatic activity
T31 construct: purchased Reaction Biology Corporation
From the text: as §1

[1] = system: Sprague-Dowley rats, medial meniscal tear (MMT) model; assay: Surgically induced meniscal tear OA in rats; type: in vivo, rat; details: day 21
Method: Medial meniscal tear (MMT) model was performed at Pharmenterprises, Russia according to the published procedure[31] and approved by Ethics Committee of Pharmenterprises. Male 4-month old Sprague-Dowley rats were anesthetized with Zoletil (Vibrac, France) and Xylazine (Interchemie werken "De Adelaar" BV, Netherlands) mixture. The medial collateral ligament was transected, and the medial meniscus was grasped with a hemostat and reflected proximally toward the femur. The meniscus was transected and then skin was closed with sutures. 60–90 min after surgery rats were subcutaneously injected with flexoprofen (VIC GROUP, Russia). Treatment groups (20 rats each) were intragastrically treated with MT-SYK-03 (100 and 500 mg/kg) or vehicle control (0.5% methylcellulose solution) 24 h before OA induction and then once daily for 21 day. Active control group was subcutaneously injected with zoledronic acid (0.1 mg/kg) 24 h before OA induction and then once every three days for 21 day. After 21 day animals were sacrificed; surgically operated right knee was removed and used for image analysis.

[2] = 500 nM, relative to DMSO, read-out: Residual enzymatic activity
[3] = 10-dose mode, threefold serial dilution from 10 μM
[4] = read-out: Residual enzymatic activity
[5] = 100 mg/kg intragastrically once daily
[6] = 500 mg/kg intragastrically once daily

**Q.** How did the remaining activity at 0.5 µM (ARK5/NUAK1; [2]) turn out when `COc1cc(Nc2ncnc(Nc3cc4c(cn3)NC(=O)C(C)(C)O4)n2)cc(OC)c1OC` [MT-SYK-03] was run?
**A.** 49.7%

**Q.** And the pIC50 (ARK5/NUAK1; [3])?
**A.** 6.42

**Q.** And the remaining activity at 0.5 µM (Aurora A)?
**A.** 74.4%

**Q.** What about the remaining activity at 0.5 µM (BMX/ETK; [2]) of the same compound?
**A.** 18%

**Q.** What about the pIC50 (BMX/ETK; [3]) of the same compound?
**A.** 6.70

**Q.** And the remaining activity at 0.5 µM (CAMK1a)?
**A.** 100%

**Q.** And the remaining activity at 0.5 µM (CAMK1d)?
**A.** 108%

**Q.** What about the remaining activity at 0.5 µM (CAMK1g) of the same compound?
**A.** 99.2%

**Q.** And the remaining activity at 0.5 µM (CDK9/cyclin K)?
**A.** 95.7%

**Q.** And the Residual enzymatic activity (EGFR)?
**A.** 59.6%

**Q.** And the remaining activity at 0.5 µM (EGFR; [4])?
**A.** > 54%

**Q.** What about the Residual enzymatic activity (EPHA2) of the same compound?
**A.** 56.3%

**Q.** What about the remaining activity at 0.5 µM (EPHA2; [4]) of the same compound?
**A.** > 54%

**Q.** And the remaining activity at 0.5 µM (FES/FPS)?
**A.** 92.2%

**Q.** And the Residual enzymatic activity (FGFR2)?
**A.** 65.1%

**Q.** And the remaining activity at 0.5 µM (FGFR2; [4])?
**A.** > 54%

**Q.** What about the remaining activity at 0.5 µM (FYN; [2]) of the same compound?
**A.** 25.2%

**Q.** And the pIC50 (FYN; [3])?
**A.** 7.70

**Q.** What about the remaining activity at 0.5 µM (IKKa/CHUK) of the same compound?
**A.** 100%

**Q.** What about the remaining activity at 0.5 µM (ITK) of the same compound?
**A.** 102%

**Q.** What about the remaining activity at 0.5 µM (JAK2; [2]) of the same compound?
**A.** 27%

**Q.** What about the pIC50 (JAK2; [3]) of the same compound?
**A.** 7.17

**Q.** What about the remaining activity at 0.5 µM (JNK1) of the same compound?
**A.** 94.3%

**Q.** And the Residual enzymatic activity (KDR/VEGFR2)?
**A.** did not inhibit

**Q.** What about the remaining activity at 0.5 µM (KDR/VEGFR2; [4]) of the same compound?
**A.** 88.6%

**Q.** What about the remaining activity at 0.5 µM (MARK3) of the same compound?
**A.** 97.1%

**Q.** What about the remaining activity at 0.5 µM (MLK3/MAP3K11; [2]) of the same compound?
**A.** 31.4%

**Q.** And the pIC50 (MLK3/MAP3K11; [3])?
**A.** 7.59

**Q.** What about the remaining activity at 0.5 µM (NEK11; [2]) of the same compound?
**A.** 35.9%

**Q.** And the pIC50 (NEK11; [3])?
**A.** 7.58

**Q.** And the remaining activity at 0.5 µM (NEK2)?
**A.** 86%

**Q.** And the remaining activity at 0.5 µM (PAK2)?
**A.** 94.1%

**Q.** And the remaining activity at 0.5 µM (PAK3)?
**A.** 87%

**Q.** What about the remaining activity at 0.5 µM (PKG2/PRKG2) of the same compound?
**A.** 94.2%

**Q.** And the remaining activity at 0.5 µM (PYK2)?
**A.** 63.4%

**Q.** And the remaining activity at 0.5 µM (ROS/ROS1; [2])?
**A.** 25.9%

**Q.** What about the pIC50 (ROS/ROS1; [3]) of the same compound?
**A.** 7.46

**Q.** What about the remaining activity at 0.5 µM (SIK2; [2]) of the same compound?
**A.** 16.2%

**Q.** And the pIC50 (SIK2; [3])?
**A.** 7.64 and 7.63

**Q.** And the remaining activity at 0.5 µM (TLK2)?
**A.** 95.6%

**Q.** What about the remaining activity at 0.5 µM (TRKC) of the same compound?
**A.** 84.5%

**Q.** What about the remaining activity at 0.5 µM (TSSK3/STK22C) of the same compound?
**A.** 99.9%

**Q.** And the remaining activity at 0.5 µM (ZIPK/DAPK3)?
**A.** 98.4%

**Q.** What about the Lesion area [1, 5] of the same compound?
**A.** 37.3 ± 3.3%

**Q.** And the Lesion depth [1, 5]?
**A.** 72.5 ± 6.0%

**Q.** And the Lesion area [1, 6]?
**A.** 30.5 ± 2.8%

**Q.** And the Lesion depth [1, 6]?
**A.** 35.0 ± 3.0% and 35.0 ± 3.0& %
